Legend:
[1] = test system: chick rectum; experiment: Spasmolytic activity in chick rectum; format: cell-based; conditions: rectum contracted with carbachol (2×10^-7 M); specific activity, α-hANP[1-28] = 100; mean ± standard error, number of experiments in parentheses
Protocol: (2) Spasmolytic activity in chick rectum. Male, 2- to 3-week-old chicks weighing 155-175 g were used. After the chicks were anesthetized with pentobarbital (6 mg/kg, ip), their rectums were excised. Krebs solution was used. The rectums were suspended in 20 ml organ-bath aerated with 5% carbon dioxide and 95% oxygen and kept at 37° ±0.5° C. Contractile tension of the rectum was determined isotonically. The isotonic recording system used was the same as that used in testing the rat aortic preparations. The rectal preparations were stabilized by keeping them under 0.5 g of tension conditions for 1 hour. The rectal preparations contracted with carbachol (2×10^-7 M),were exposed to ANP to examine its relaxing effect. As with the rat aortic preparations, ED50 for the standard α-haNP(1-28) and for the ANP fragment were determined, and the specific activity were calculated.

[2] = test system: rat aortic strips; experiment: Spasmolytic activity in rat aortic strips; format: cell-based; conditions: aortic strips contracted with norepinephrine (5×10^-8 M); specific activity, α-hANP[1-28] = 100; mean ± standard error, number of experiments in parentheses
Protocol: (1) Spasmolytic activity in rat aortic strips. Male Sprague-Dawley rats weighing 250-280 g were used. After the rats were decapitated, their thoracic aorta were obtained and aortic helical strips were prepared. Krebs solution was used in this assay system. The aortic strips were suspended in a 20 ml organ-bath which was aerated with 5% carbon dioxide and 95% oxygen and kept at 37° ±0.5° C. The aortic tension was recorded isotonically. The isotonic recording system, consisted of a transducer and amplifier (ME commercial ME4012) and a recorder (Sanei 8K21). A resting tension of 0.5 g was loaded on the aortic strips. The prepared strips were left under the described conditions for 1 hour to obtain the stable tension. The aortic preparation contracted with norepinephrine (5×10^-8 M) was exposed to ANP to examine its relaxant activity. The dose response curve was obtained for the α-hANP(1-28) and the ANP fragment in the same preparation. The 50% effective dose (ED50) for each preparation was obtained and the ratio was used as the specific activity.

Compound | Spasmolytic Activity in Chick Rectum (ratio of ED50 to the standard hANP (1-28)) [1] | Spasmolytic Activity in Rat Aorta (ratio of ED50 to the standard hANP (1-28)) [2]
(Nle^12)α-hANP(1-28) [[Nle^12]-α-hANP[1-28]] | 70.3 ± 10.9 | 80.5 ± 12.2
CC[C@H](C)[C@@H]1NC(=O)[C@H](CCCNC(=N)N)NC(=O)[C@H](CC(=O)O)NC(=O)[C@H](CCSC)NC(=O)[C@H](CCCNC(=N)N)NC(=O)CNC(=O)CNC(=O)[C@H](Cc2ccccc2)NC(=O)[C@@H](NC(=O)[C@H](CO)NC(=O)[C@H](CO)NC(=O)[C@H](CCCNC(=N)N)NC(=O)[C@H](CCCNC(=N)N)NC(=O)[C@H](CC(C)C)NC(=O)[C@@H](N)CO)CSSC[C@@H](C(=O)N[C@@H](CC(N)=O)C(=O)N[C@@H](CO)C(=O)N[C@@H](Cc2ccccc2)C(=O)N[C@@H](CCCNC(=N)N)C(=O)N[C@@H](Cc2ccc(O)cc2)C(=O)O)NC(=O)CNC(=O)[C@H](CC(C)C)NC(=O)CNC(=O)[C@H](CO)NC(=O)[C@H](CCC(N)=O)NC(=O)[C@H](C)NC(=O)CNC1=O [α-hANP[1-28], α-human atrial natriuretic peptide] | 100 | 100
